# Experimental data from patent US8404738B2 (Hoffmann-La Roche Inc., priority 2011, dated 2013).
# Tests used:
# OPM-2 = assay: WST anti-proliferative assay, multiple myeloma cell line OPM-2; assay type: cell-based; conditions: Homo sapiens; OPM-2 cells, 72 hours, CCK-8
# From the text: (§1) WST Anti-Proliferative Assay and Assessment of Growth Inhibitory of Novel Compounds in Multiple Myeloma Cell Lines.
# RPMI-8226 = assay: WST anti-proliferative assay, multiple myeloma cell line RPMI-8226; assay type: cell-based; conditions: Homo sapiens, RPMI8226 cells, 72 hours, CCK-8
# From the text: as §1
# HDAC6 = target: T1, HDAC6 (Homo sapiens, UniProt Q9UBN7); assay: Tubulin acetylation cytoblot assay (A549 cells); assay type: cell-based; conditions: 17-18 h incubation, tubulin acetylation as marker of HDAC6 inhibition, read-out: Tub-Ac EC50
# T1 construct: endogenous in cells; host or cells: A549 cells
# T1 sequence (Q9UBN7 1-1215): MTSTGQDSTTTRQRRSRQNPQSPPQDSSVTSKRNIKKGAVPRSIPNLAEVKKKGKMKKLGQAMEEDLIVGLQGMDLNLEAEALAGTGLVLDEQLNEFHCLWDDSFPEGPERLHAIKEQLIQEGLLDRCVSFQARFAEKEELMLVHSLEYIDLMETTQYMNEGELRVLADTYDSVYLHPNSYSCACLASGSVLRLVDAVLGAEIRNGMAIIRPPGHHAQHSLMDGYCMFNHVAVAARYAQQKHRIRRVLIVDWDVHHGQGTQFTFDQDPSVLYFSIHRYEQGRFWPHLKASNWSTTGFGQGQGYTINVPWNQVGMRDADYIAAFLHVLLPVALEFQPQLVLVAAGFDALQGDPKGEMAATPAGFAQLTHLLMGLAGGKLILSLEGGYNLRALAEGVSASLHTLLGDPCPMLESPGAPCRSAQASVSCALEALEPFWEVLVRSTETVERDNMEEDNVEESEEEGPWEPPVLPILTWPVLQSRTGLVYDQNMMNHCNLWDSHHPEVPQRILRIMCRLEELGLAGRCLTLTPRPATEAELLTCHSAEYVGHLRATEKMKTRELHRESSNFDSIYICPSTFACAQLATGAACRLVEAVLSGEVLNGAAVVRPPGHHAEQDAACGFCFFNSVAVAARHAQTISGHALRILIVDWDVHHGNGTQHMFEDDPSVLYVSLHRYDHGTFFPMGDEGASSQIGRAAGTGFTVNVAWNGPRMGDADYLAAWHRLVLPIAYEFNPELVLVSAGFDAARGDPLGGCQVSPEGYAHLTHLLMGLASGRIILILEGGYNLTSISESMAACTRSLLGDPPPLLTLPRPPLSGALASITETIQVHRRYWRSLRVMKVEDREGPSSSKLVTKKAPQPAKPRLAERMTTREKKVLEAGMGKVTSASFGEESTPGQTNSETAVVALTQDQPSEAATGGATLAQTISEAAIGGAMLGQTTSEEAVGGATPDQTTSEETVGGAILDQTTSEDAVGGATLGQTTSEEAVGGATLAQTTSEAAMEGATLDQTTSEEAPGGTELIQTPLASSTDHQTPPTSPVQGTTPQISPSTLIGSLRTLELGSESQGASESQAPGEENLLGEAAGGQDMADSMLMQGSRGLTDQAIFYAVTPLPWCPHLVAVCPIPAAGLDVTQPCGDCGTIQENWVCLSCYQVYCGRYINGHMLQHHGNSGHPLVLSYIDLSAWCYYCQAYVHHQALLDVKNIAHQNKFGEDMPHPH
# Procedure, shortened: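 Cells were exposed to compound for 17-18 h, then fixed with formaldehyde and permeabilized with cold MeOH. They were probed for 4 h at 4° C with anti-acetylated tubulin plus HRP anti-mouse IgG (each 1:750), and read by ECL luminescence. EC50 values came from curves normalized to top and bottom controls.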
# [1] = test system: p21 promoter-luciferase construct; assay: p21 reporter gene induction (HeLa cells, p21 promoter-luciferase construct); conditions: for p21 RP3: relative gene level of p21 compared to MS275 at 3 μM; for p21 RP10: relative level of p21 compared to MS275 at 10 μM; for p21 RP30: relative level of p21 compared to MS275 at 30 μM;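 as to all read-outs here: transfected HeLa cells exposed to compound for 15 h, luciferase luminescence read from lysates, p21 promoter lacks p53 site, proxy for cellular HDAC1/2/3 inhibition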
# Description: As a surrogate for in-cell HDAC1/2/3 inhibition, p21 induction was used as a counterscreen to evaluate the selectivity of the compounds in the present invention toward HDAC6 or HDAC8.
# The novel compounds of the present invention were tested for their ability to induce p21 gene expression using a reporter gene assay involving HeLa cells transfected with a p21 promoter-luciferase construct. The p21 promoter contained the Sp1/Sp3 binding site for HDAC but not the upstream p53 binding site. Briefly, the day before transfection, HeLa cells were seeded at 11,000 cells/well in a 96-well culture plate and incubated at 37° C. in 5% CO2 overnight. A transfection media was prepared prior to transfection according to the following procedure: (1) 5 μl serum-free DMEM, 0.15 μl Fugene 6 reagent, 40 ng p21-luc, 10 ng GFP were mixed gently and incubated at rt for 30 minutes; (2), then 98 μl DMEM (with 10% FBS, 1% penicillin and streptomycin) was added to the DNA: Fugene 6 reagent complex and mixed gently. For transfection, the medium was removed and replaced with 100 μl/well transfection media which was prepared according to the procedure above. After incubating the cells for 24 hours at 37° C. in 5% CO2, fresh media and test compounds were added to the wells and the cells further incubated for 15 hours at 37° C. in 5% CO2. Cells were lysed by adding 80 μl/well of a cell culture lysis reagent (Promega). 50 μl of each lysate was taken for GFP detection using an excitation wavelength of 486 nm and detection at 527 nm. 100 μl luciferase assay reagent (Promega) was then added to every 20 μl cell lysate for luminometer detection.
# recombinant human HDAC8 = target: T2, recombinant human HDAC8 (Homo sapiens, UniProt Q9BY41); assay: HDAC8 inhibition: recombinant HDAC8 fluorometric assay; assay type: biochemical; conditions: recombinant human HDAC8, substrate Ac-Arg-His-Lys-Lys(ε-acetyl)-AMC; read-out: HDAC8 IC50
# T2 construct: made in house; host or cells: insect cells
# T2 sequence (Q9BY41 1-377): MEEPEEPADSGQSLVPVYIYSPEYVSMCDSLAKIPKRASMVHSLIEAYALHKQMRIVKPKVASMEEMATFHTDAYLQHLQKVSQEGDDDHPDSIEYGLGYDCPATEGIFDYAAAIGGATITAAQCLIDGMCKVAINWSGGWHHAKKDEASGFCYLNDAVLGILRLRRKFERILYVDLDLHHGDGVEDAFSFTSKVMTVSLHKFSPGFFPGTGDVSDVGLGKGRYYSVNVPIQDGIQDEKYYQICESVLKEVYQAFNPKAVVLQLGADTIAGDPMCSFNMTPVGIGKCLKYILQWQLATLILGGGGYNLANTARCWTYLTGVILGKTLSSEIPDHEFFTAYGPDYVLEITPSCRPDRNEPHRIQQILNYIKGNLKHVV
# Procedure, shortened: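 Recombinant human HDAC8 from insect cells was preincubated with compound for 15 min at rt, then given Ac-Arg-His-Lys-Lys(ε-acetyl)-AMC substrate for 30 min at rt. IC50 came from normalized percent inhibition with curve fitting.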
SMILES,IC50 (OPM-2),IC50 (RPMI-8226),EC50 (HDAC6),IC50 (recombinant human HDAC8),p21 RP3 [1],p21 RP10 [1],p21 RP30 [1]
"O=C(NO)c1ccc(NC2CC(=O)N(c3ccc(F)cc3)C2)cc1 (centres unmarked) [Example 70, 4-[1-(4-Fluoro-phenyl)-5-oxo-pyrrolidin-3-ylamino]-N-hydroxy-benzamide]",6.47 µM,10.7 µM,1.71 µM,0.2 µM,−0.07,0.00,0.02
"O=C(NO)c1ccc(NC2CCN(c3ccc(Cl)cc3)C2=O)cc1 (centres unmarked) [Example 7, 4-[1-(4-Chloro-phenyl)-2-oxo-pyrrolidin-3-ylamino]-N-hydroxy-benzamide]",5.56 µM,8.79 µM,1.41 µM,0.55 µM,−0.08,0.12,0.16
"CC1(Nc2ccc(C(=O)NO)cc2)CCN(c2ccc(Cl)cc2)C1=O (centres unmarked) [Example 60, 4-[1-(4-Chloro-phenyl)-3-methyl-2-oxo-pyrrolidin-3-ylamino]-N-hydroxy-benzamide]",3.94 µM,8.11 µM,0.53 µM,0.92 µM,0.80,0.16,0.07
"CN(C)CCOc1cccc(N2CCC(Nc3ccc(C(=O)NO)cc3)C2=O)c1 (centres unmarked) [Example 36, 4-{1-[3-(2-Dimethylamino-ethoxy)-phenyl]-2-oxo-pyrrolidin-3-ylamino}-N-hydroxy-benzamide]",,,2.05 µM,0.49 µM,0.55,0.18,0.45

# Now from value to compound, other results behind:
IC50 (OPM-2),IC50 (RPMI-8226),EC50 (HDAC6),IC50 (recombinant human HDAC8),SMILES,p21 RP3 [1],p21 RP10 [1],p21 RP30 [1]
3.46 µM,5.62 µM,0.81 µM,1.01 µM,"O=C(NO)c1ccc(NC2CC(=O)N(c3ccccc3Cl)C2)cc1 (centres unmarked) [Example 71, 4-[1-(2-Chloro-phenyl)-5-oxo-pyrrolidin-3-ylamino]-N-hydroxy-benzamide]",0.13,0.06,0.04
4.95 µM,6.49 µM,1.47 µM,1.04 µM,"O=C(NO)c1ccc(NC2CC(=O)N(c3ccc(Cl)cc3)C2)cc1 (centres unmarked) [Example 73, 4-[1-(4-Chloro-phenyl)-5-oxo-pyrrolidin-3-ylamino]-N-hydroxy-benzamide]",0.12,0.04,0.04
3.62 µM,4.05 µM,3.02 µM,0.52 µM,"CC(C)(c1ccccc1)N1CCC(Nc2ccc(C(=O)NO)cc2)C1=O (centres unmarked) [Example 47, N-Hydroxy-4-[1-(1-methyl-1-phenyl-ethyl)-2-oxo-pyrrolidin-3-ylamino]-benzamide]",0.05,0.09,0.29
